Test [1] deals with T1, His-RAD54 WT (Homo sapiens, UniProt Q92698).
T1 construct: made in house; host or cells: E. coli BL-21 DE3
T1 sequence (Q92698 1-747): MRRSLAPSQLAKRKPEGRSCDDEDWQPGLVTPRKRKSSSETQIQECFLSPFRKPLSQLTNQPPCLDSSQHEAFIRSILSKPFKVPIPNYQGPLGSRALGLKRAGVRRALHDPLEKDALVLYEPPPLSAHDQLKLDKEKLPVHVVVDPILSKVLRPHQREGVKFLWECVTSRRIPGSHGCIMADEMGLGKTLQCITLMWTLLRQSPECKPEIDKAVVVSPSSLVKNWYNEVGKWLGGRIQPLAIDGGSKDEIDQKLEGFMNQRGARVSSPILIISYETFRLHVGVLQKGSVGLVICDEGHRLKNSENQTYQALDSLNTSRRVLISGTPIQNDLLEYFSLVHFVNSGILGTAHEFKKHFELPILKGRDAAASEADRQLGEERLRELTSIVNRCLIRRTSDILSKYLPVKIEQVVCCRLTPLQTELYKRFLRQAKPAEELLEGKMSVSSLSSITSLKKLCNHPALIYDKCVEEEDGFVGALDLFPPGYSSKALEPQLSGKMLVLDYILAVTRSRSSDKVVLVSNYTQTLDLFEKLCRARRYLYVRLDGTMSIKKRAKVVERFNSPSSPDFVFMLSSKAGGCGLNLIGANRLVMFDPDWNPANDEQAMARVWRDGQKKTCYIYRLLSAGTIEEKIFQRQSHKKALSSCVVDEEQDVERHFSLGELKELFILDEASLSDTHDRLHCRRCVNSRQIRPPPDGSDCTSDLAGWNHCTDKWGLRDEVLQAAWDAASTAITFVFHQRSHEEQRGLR
Nature of the test: Octet Bio-Layer Interferometry (BLI) binding. The note with it: His-RAD54 WT immobilized onto Ni-NTA-sensor, 25° C.; read-out: affinity constant (KD). On the procedure:
The interactions between RAD54 and biotinylated BLM_peptide (181-212) as well as the various compounds were studied using Bio-layer interferometry (BLI) using the Octet K2 system (ForteBio Systems). Approximately, 250 μg of His-tagged RAD54 was immobilized onto a Ni-NTA chip for 600 s and the unbound protein was washed using 10 mM HEPES pH 7.5 buffer. […] Each of the reaction set was then used to check for their association with RAD54 captured on the sensor. The kinetics of the RAD54-BLM interaction was monitored for 180 s each for the association and the dissociation curves by dipping the sensors in a series of increasing concentrations of the BLM_peptide. 500 mM NaCl was used as the dissociation buffer. A control sensor with the immobilized RAD54 was used in parallel and was used to normalize the data. Washing in 350 mM EDTA regenerated the sensors for the next cycle of binding kinetics. The experiments were performed at 25° C. All the real-time data was analysed and KD values were determined using the Octet® Evaluation software using 1:1 fitting curves.
A general note: BLI is a label-free optical method that tracks binding on a fibre tip over time.

The target of test [2] is T2, RAD54 chromatin remodeling activity (Homo sapiens, UniProt Q92698).
T2 construct: GST RAD54 (1-747) (WT), GST BLM (1-1417) (WT), His RAD54 (1-747) (WT); made in house; host or cells: E. coli BL-21 DE3
T2 sequence (Q92698 1-747): T1 sequence (Q92698 1-747)
Nature of the test: Restriction enzyme accessibility (REA) assay on chromatinized G5E4 array. Particulars: 10 μM compound, +ATP. Type of test: biochemical.
From the text: (§1) The data is from three independent experiments.
as §1

Test [3] has as its target T2, RAD54 chromatin remodeling activity. Nature of the test: REA assay on chromatinized MRP2 array. Type of test: biochemical. Particulars: 10 μM compound.
From the text: (§2) The data was from three independent experiments.
as §2, §1

For test [4], the target named is T3, RAD54 ATPase activity (Homo sapiens, UniProt Q92698).
T3 construct: made in house; host or cells: E. coli BL-21 DE3
T3 sequence (Q92698 1-747): T1 sequence (Q92698 1-747)
Nature of the test: ATPase assay. The note with it: 10 μM compound. Type of test: biochemical. On the procedure: The data is from three independent experiments. Mean±S.D.
The presence of the disruptors also led to a decrease in the ATP binding to RAD54.
Assay for RAD54 ATPase activity was carried out as per the previously published protocol (Srivastava et al., 2009). His-RAD54 (120 nM) was incubated with the GST-BLM (1-212) or BLM_peptide or SCM_peptide (180 nM). […] 1 μl of the sample was spotted on the polyethyleneimine-coated TLC plate, resolved in 1M Formic Acid and 0.3M LiCl. The products of ATP hydrolysis were then visualized by Phosphoimager scans taken in Typhoon™ laser-scanner platform (Cytiva) and quantitated using the inbuilt software.

The target of test [5] is T1, His-RAD54 WT. Nature of the test: Tryptophan fluorescence assay. Type of test: binding. The note with it: compound, from 10 nM. As to the method: To determine how BLM peptide affects ATP binding and hydrolysis, tryptophan fluorescence assays were carried out using full-length recombinant RAD54 in presence of either BLM_peptide or SCM_peptide (FIG. 2H). Tryptophan fluorescence assays were carried out with RAD54 WT alone or RAD54 WT in presence of the indicated concentrations of either BLM_peptide (upper panel) or SCM_peptide (lower panel). The experiment was repeated three times and one representative experiment has been shown.
RAD54 fluorescence was measured in a fluorometer.
Tryptophan fluorescence measurements were performed on a Fluoromax Spectrofluorimeter (Horiba-Jobin Yvon Fluoromax 4). Recombinant His-RAD54 (500 nM) was excited at 280 nm and the emission intensity monitored at regular intervals from 295 nm to at least 450 nm.

Test [6] concerns MRP2 in HCT116 WT IC60 CPTR cells. Nature of the test: MRP2 activity, CDF accumulation. Type of test: cell-based. The note with it: combinatorial treatment with CPT. As to the method:
The cells were incubated with MRP2 substrate CDFD for 30 minutes at 37° C. The accumulation of florescent product CDF was determined as a measure of MRP2 activity (FIG. 12E). The data is from three independent experiments. Mean±S.D.

Test [7] relates to HCT116 CPT(R) cells stably expressing BLM (Delta 181-212) in BLM−/− background. Nature of the test: Xenograft, cells expressing BLM (Delta 181-212). It counts as in vivo, NSG mice. Particulars: for tumour volume, chemosensitivity to camptothecin: CPT + compound. On the procedure: Xenografts assays were carried out in NSG mice using HCT116 CPT(R) cells stably expressing BLM (Delta 181-212) in BLM−/− background. FIGS. 15A-15C show the tumour volumes post-injection of cells.
RNA (FIG. 15D) or protein (FIG. 15E) levels of the indicated MDR genes were determined by RT-qPCR or immunoblotting with the indicated antibodies.

The test system of test [8] is HT-29 OHP(R) cells. Nature of the test: Xenograft, HT-29 OHP(R). It counts as in vivo, NSG mice. Particulars: for tumour volume, chemoresistance: CPT + compound. As to the method:
Xenografts assays were carried out in NSG mice using HT-29 OHP(R) cells.
RNA (FIG. 16D) or protein (FIG. 16E) levels of the indicated MDR genes were determined by RT-qPCR or immunoblotting with the indicated antibodies.

In test [9] the test system is CT26 cells. Nature of the test: Syngeneic or allogenic model, CT26. It counts as in vivo, BALB/c mice. Particulars: for tumour volume, chemoresistance: CPT + compound. On the procedure: Xenografts assays were carried out in BALB/c mice using CT26 cells.
RNA (FIG. 17D) or protein (FIG. 17E) levels of the indicated MDR genes were determined by RT-qPCR or immunoblotting with the indicated antibodies.

Where [10] appears, read: without or with compound treatment.

`CC(=O)Nc1nnc(S(N)(=O)=O)s1` [C3, Acetazolamide]: in test [1], the Kd (usually a measure of binding affinity in units of concentration) was 55.8 µM. Moreover, the “BLM (1-212) dependent enhancement of RAD54 chromatin remodeling, fraction uncut” value in [2] was “decrease the efficiency of BLM dependent enhancement of RAD54 chromatin remodeling activity”. The “BLM dependent enhancement of RAD54 chromatin remodeling, fraction uncut” value (from here on “BLM dependent enhancement … fraction uncut”) in test [3] is given as “decreased the efficiency of BLM dependent enhancement of RAD54 chromatin remodelling activity”. For the same molecule, the “BLM dependent enhancement of ATPase activity of RAD54 (ATP hydrolysis)” value (“BLM dependent enhancement … (ATP hydrolysis)” for short) in test [4] is reported as “reduced the extent of ATP hydrolysis”. Besides, in [5], the “tryptophan fluorescence of RAD54” value is listed as “quenched the tryptophan florescence of RAD54 even at 10 nM concentration”. In addition, the “MRP2 activity, accumulation of CDF” value in test [6] is given as “decreased MRP2 activity”. In [7], the “tumour volume, chemosensitivity to camptothecin” value (“tumour volume, chemosensitivity” for short) was “abrogates the functions”. For the same molecule, the “tumour volume, chemoresistance” value in test [8] and in [9] was “reverses chemoresistance” in each case.
Turning to `CN1CCN(C2=Nc3ccccc3Oc3ccc(Cl)cc32)CC1.O=C(O)CCC(=O)O` [C17, Loxapine succinate], the Kd in [1] amounted to 0.0803 µM. In addition, the “BLM (1-212) dependent enhancement of RAD54 chromatin remodeling, fraction uncut” value in test [2] is on record as “decrease the efficiency of BLM dependent enhancement of RAD54 chromatin remodeling activity”. The “BLM dependent enhancement … fraction uncut” value in [3] is on record as “decreased the efficiency of BLM dependent enhancement of RAD54 chromatin remodelling activity”. Besides, in test [4], the “BLM dependent enhancement … (ATP hydrolysis)” value was “reduced the extent of ATP hydrolysis”. Besides, in test [5], the “tryptophan fluorescence of RAD54” value was “quenched the tryptophan florescence of RAD54 even at 10 nM concentration”. Besides, in test [6], the “MRP2 activity, accumulation of CDF” value is on record as “decreased MRP2 activity”. For the same molecule, the “tumour volume, chemosensitivity” value in test [7] is “abrogates the functions”. The “RNA and protein levels of the MDR genes in tumours” value in [7] (setting [10]) is recorded as “unaffected”; in test [8] (setting [10]) it was “decreased”; in test [9] (setting [10]), “decreased”. The “tumour volume, chemoresistance” value in test [8] and in test [9] was “reverses chemoresistance” in each case.
As to `OCCN(CCO)c1nc(N2CCCCC2)c2nc(N(CCO)CCO)nc(N3CCCCC3)c2n1` [C7, Dipyridamole], the Kd in [1] was determined as 5.04 µM. For the same molecule, the “BLM (1-212) dependent enhancement of RAD54 chromatin remodeling, fraction uncut” value in test [2] is recorded as “decrease the efficiency of BLM dependent enhancement of RAD54 chromatin remodeling activity”. Moreover, the “BLM dependent enhancement … fraction uncut” value in test [3] was “decreased the efficiency of BLM dependent enhancement of RAD54 chromatin remodelling activity”. In addition, the “BLM dependent enhancement … (ATP hydrolysis)” value in test [4] was “reduced the extent of ATP hydrolysis”. The “tryptophan fluorescence of RAD54” value in test [5] is on record as “quenched the tryptophan florescence of RAD54 even at 10 nM concentration”. In test [6], the “MRP2 activity, accumulation of CDF” value is recorded as “decreased MRP2 activity”. The “tumour volume, chemosensitivity” value in test [7] is “abrogates the functions”. Moreover, the “tumour volume, chemoresistance” value in test [8] and in test [9] was “reverses chemoresistance” each time.

For the origin of these results see patent US20240180881A1, “METHODS FOR DECREASING RESISTANCE TO CHEMOTHERAPY” (National Institute of Immunology, priority 2022, published 2024).
